From PubChem BioAssay (NCI)
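1) Cells in 96-well plates. 2) Compound, 48 h, 5 concentrations. 3) Linear interpolation between surrounding doses. 4) Unreached endpoint = highest concentration. TGI is the concentration that stops growth completely.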

How the values were obtained:
Assay in all cases: inhibition of tumour cell growth, NCI panel, 48 h
MDA-MB-231 breast = test system: MDA-MB-231 breast
CAKI-1 renal = test system: CAKI-1 renal
RPMI-8226 leukemia = test system: RPMI-8226 leukemia
CCRF-CEM leukemia = test system: CCRF-CEM leukemia
U251 CNS = test system: U251 CNS
NCI-H226 lung = test system: NCI-H226 lung
SK-MEL-28 melanoma = test system: SK-MEL-28 melanoma
A498 renal = test system: A498 renal
PC-3 prostate = test system: PC-3 prostate
MDA-MB-435 = test system: MDA-MB-435
HCC-2998 colon = test system: HCC-2998 colon
OVCAR-4 ovarian = test system: OVCAR-4 ovarian
HOP-92 NSCLC = test system: HOP-92 NSCLC
ACHN renal = test system: ACHN renal
HS 578T breast = test system: HS 578T breast
M14 melanoma = test system: M14 melanoma
UACC-62 melanoma = test system: UACC-62 melanoma
OVCAR-8 ovarian = test system: OVCAR-8 ovarian
HCT-15 colon = test system: HCT-15 colon
UO-31 renal = test system: UO-31 renal
UACC-257 melanoma = test system: UACC-257 melanoma
SR leukemia = test system: SR leukemia
T-47D breast = test system: T-47D breast
HT29 colon = test system: HT29 colon
SF-539 CNS = test system: SF-539 CNS
NCI/ADR-RES ovarian = test system: NCI/ADR-RES ovarian
NCI-H460 lung = test system: NCI-H460 lung
SF-268 CNS = test system: SF-268 CNS
OVCAR-3 ovarian = test system: OVCAR-3 ovarian
BT-549 breast = test system: BT-549 breast
HCT-116 colon = test system: HCT-116 colon
COLO 205 colon = test system: COLO 205 colon
SF-295 CNS = test system: SF-295 CNS
786-0 renal = test system: 786-0 renal
SW-620 colon = test system: SW-620 colon
SNB-75 CNS = test system: SNB-75 CNS
LOX IMVI melanoma = test system: LOX IMVI melanoma
NCI-H23 lung = test system: NCI-H23 lung
KM12 colon = test system: KM12 colon
HOP-62 NSCLC = test system: HOP-62 NSCLC
TK-10 renal = test system: TK-10 renal
DU-145 prostate = test system: DU-145 prostate
EKVX NSCLC = test system: EKVX NSCLC
OVCAR-5 ovarian = test system: OVCAR-5 ovarian
MOLT-4 leukemia = test system: MOLT-4 leukemia
SK-MEL-5 melanoma = test system: SK-MEL-5 melanoma
MDA-N = test system: MDA-N
SNB-19 CNS = test system: SNB-19 CNS
SK-OV-3 ovarian = test system: SK-OV-3 ovarian
NCI-H522 lung = test system: NCI-H522 lung
RXF 393 renal = test system: RXF 393 renal
SN12C renal = test system: SN12C renal
HL-60(TB) leukemia = test system: HL-60(TB) leukemia
IGROV1 ovarian = test system: IGROV1 ovarian
SK-MEL-2 melanoma = test system: SK-MEL-2 melanoma
MCF7 breast = test system: MCF7 breast
MALME-3M melanoma = test system: MALME-3M melanoma
A549 NSCLC = test system: A549 NSCLC

`C=C1C(O)C2OC(=O)C(=C)C2C(OC(=O)/C(C)=C/C)CC2(C)OC2C2OC12` (stereo not drawn) was tested, and the TGI (MDA-MB-231 breast) was 37.9 µM, the TGI (CAKI-1 renal) was 26.9 µM and the TGI (RPMI-8226 leukemia) was 7.72 µM. For the same compound, the TGI (CCRF-CEM leukemia) was > 100 µM, the TGI (U251 CNS) was > 100 µM and the TGI (NCI-H226 lung) was > 100 µM. The TGI (SK-MEL-28 melanoma) was > 100 µM, the TGI (A498 renal) was 46.4 µM and the TGI (PC-3 prostate) was 54.4 µM. For the same compound, the TGI (MDA-MB-435) was > 100 µM, the TGI (HCC-2998 colon) was 21.6 µM and the TGI (OVCAR-4 ovarian) was > 100 µM. For the same compound, the TGI (HOP-92 NSCLC) was 65.4 µM, the TGI (ACHN renal) was 15.5 µM and the TGI (HS 578T breast) was > 100 µM. For the same compound, the TGI (M14 melanoma) was > 100 µM, the TGI (UACC-62 melanoma) was 48.2 µM and the TGI (OVCAR-8 ovarian) was > 100 µM. The TGI (HCT-15 colon) was 14.5 µM, the TGI (UO-31 renal) was 81.3 µM and the TGI (UACC-257 melanoma) was > 100 µM. The TGI (SR leukemia) was 24.5 µM, the TGI (T-47D breast) was > 100 µM and the TGI (HT29 colon) was 33.7 µM. The TGI (SF-539 CNS) was > 100 µM, the TGI (NCI/ADR-RES ovarian) was > 100 µM and the TGI (NCI-H460 lung) was 91.6 µM. For the same compound, the TGI (SF-268 CNS) was > 100 µM, the TGI (OVCAR-3 ovarian) was 26.2 µM and the TGI (BT-549 breast) was 27.2 µM. The TGI (HCT-116 colon) was > 100 µM, the TGI (COLO 205 colon) was 31.4 µM and the TGI (SF-295 CNS) was 50.9 µM. The TGI (786-0 renal) was 42.5 µM, the TGI (SW-620 colon) was > 100 µM and the TGI (SNB-75 CNS) was > 100 µM. It also gave a TGI (LOX IMVI melanoma) of 29.7 µM, a TGI (NCI-H23 lung) of 35.3 µM and a TGI (KM12 colon) of 11.6 µM. For the same compound, the TGI (HOP-62 NSCLC) was > 100 µM, the TGI (TK-10 renal) was 47.2 µM and the TGI (DU-145 prostate) was > 100 µM. The TGI (EKVX NSCLC) was 33 µM, the TGI (OVCAR-5 ovarian) was 83.7 µM and the TGI (MOLT-4 leukemia) was 31.2 µM. For the same compound, the TGI (SK-MEL-5 melanoma) was > 100 µM, the TGI (MDA-N) was 6.02 µM and the TGI (SNB-19 CNS) was > 100 µM. For the same compound, the TGI (SK-OV-3 ovarian) was > 100 µM, the TGI (NCI-H522 lung) was 15.6 µM and the TGI (RXF 393 renal) was 35.6 µM. For the same compound, the TGI (SN12C renal) was 14.8 µM, the TGI (HL-60(TB) leukemia) was 7.44 µM and the TGI (IGROV1 ovarian) was > 100 µM. It also gave a TGI (SK-MEL-2 melanoma) of 38.4 µM, a TGI (MCF7 breast) of 22.6 µM and a TGI (MALME-3M melanoma) of 29 µM. The TGI (A549 NSCLC) was > 100 µM.
